Laboratory results from article PMC12064818, “A general assay platform to study protein pharmacology using ligand-dependent structural dynamics” (Nature Communications, 2025).
Several values for one entry are separate records, joined by “and”; a condition that tells them apart may be missing. Equal entries are not always repeated. Structures can show the parent of a compound that is named as a salt. Where two headings read alike, the source gives them in different places.

Assays:
PKA = details: annotation yes/no for kinase library compound; source not given; cited from earlier work
PKA-N-HiBiT [1] = molecular target: T1, PKA-N-HiBiT (Homo sapiens, UniProt P17612); test: SDR assay, PKA-N-HiBiT; details: for SDR Ave Max Response: average maximal response; for PKA SDR: Log [H-89]
[2] = molecular target: T2, ABL1-N-HiBiT kinase domain (Homo sapiens, UniProt P00519); test: SDR assay, ABL1-N-HiBiT; details: for ABL1 SDR pSDR50: heatmap data, 128 kinase inhibitors; for SDR Ave Max Response / EC50: ABL1-N-HiBiT qHTS; for EC50: read-out: SDR Ave SDR50, average
T2 sequence (P00519 233-500): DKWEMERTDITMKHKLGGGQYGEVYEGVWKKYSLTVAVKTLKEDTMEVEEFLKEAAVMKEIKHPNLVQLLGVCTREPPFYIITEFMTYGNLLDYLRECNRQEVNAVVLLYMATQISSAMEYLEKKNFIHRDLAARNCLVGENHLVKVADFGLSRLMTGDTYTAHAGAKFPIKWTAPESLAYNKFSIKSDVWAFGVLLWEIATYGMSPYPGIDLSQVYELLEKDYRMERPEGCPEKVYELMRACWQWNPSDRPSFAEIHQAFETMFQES

PKA-N-HiBiT [3] = molecular target: T1, PKA-N-HiBiT; test: PKA peptide phosphorylation, Kinase-Glo Plus (KGP) assay, PKA-N-HiBiT; format: biochemical; design: containing amino acids Gly2-Phe351; His10 (N); made in house; host or cells: E. coli BL21(DE3); details: for Efficacy / Hill Coef / Max Resp / CC-v2: KGP Rep 1; for CC-v2: curve class
Description: (§1) Kinase activity was measured by ATP depletion using the Kinase-Glo Plus (KGP) assay kit (Promega) in 1536-well plate format. […] Controls were added with a Mosquito dispenser (STP LabTech) while compounds were transferred with a pintool to each plate as described in Supplementary Data 8 and incubated for 30 min at ambient temperature. […] Following a 10 min incubation, KGP luminescence was measured with a ViewLux plate reader with 1 sec exposure, with medium to high gain setting, slow speed and 2x binning. Data were normalized to the average of no enzyme control column as 100% kinase inhibition and DMSO control column as 100% phosphorylation reaction progress. See Supplementary Table 5 for additional details.
(§2) Protocol for Abelson kinase (ABL1) and protein kinase A (PKA) peptide phosphorylation assays
(§3) Supplementary Table 5: Protocol for Abelson kinase (ABL1) and protein kinase A (PKA) peptide phosphorylation assays Sequence Param eter Value Description
(§4) 3 Incubation 30 m in Incubate enzym e + com pounds at am bient tem p for 30 m in, protected from light […]
(§5) protocol; dispensed with BioRaptr 2

[4] = molecular target: T2, ABL1-N-HiBiT kinase domain; test: ABL1 peptide phosphorylation, Kinase-Glo Plus (KGP) assay, ABL1-N-HiBiT; format: biochemical; design: containing amino acid residues Asp233-Ser500; His10 (N); made in house; host or cells: E. coli BL21(DE3); details: for ABL1 KGP pIC50: ABL1, Kinase-Glo Plus (KGP), heatmap data, 128 kinase inhibitors; for IC50: ABL1-N-HiBiT qHTS, average, read-out: ABL1 KGP Ave IC50; for Efficacy / Hill Coef / Max Resp / CC-v2: KGP Rep 1; for CC-v2: curve class
Description: as §1, §2, §3, §4, §5

[5] = read-out: PKA SDR Ave SDR50, PKA-N-HiBiT qHTS, SDR assay, average
[6] = PKA-N-HiBiT qHTS, Kinase-Glo Plus, average, read-out: PKA KGP Ave IC50
[7] = Figure 2i correlation plot data, read-out: ABL1 Enz Assay Mean (PKA KGP assay pIC50) (converted)
[8] = PKA-N-HiBiT 10 nM SDR, ligand 35.7 µM SDR
[9] = PKA-N-HiBiT […] Std, ligand 62.5 µM Std
[10] = SDR assay, average maximal response

Row | Compound | SDR Ave Max Response (PKA-N-HiBiT [1]; PKA-N-HiBiT qHTS, SDR assay) | ABL1 SDR pSDR50 [2] | SDR Ave Max Response ([2]; average maximal SDR response) | EC50 ([2]; unit inferred) | EC50 (PKA-N-HiBiT [1]) | ABL1 KGP pIC50 [4] | IC50 ([4]; unit inferred) | Annotated PKA activity (PKA) | EC50 (PKA-N-HiBiT [1]; [5]) | further results
1 | Cc1n[nH]c2ccc(-c3cncc(OC[C@@H](N)Cc4c[nH]c5ccccc45)c3)cc12 [A-443654] | 40.10 | 5.32 | -27.36 | 5.63 µM | – | – | – | yes | 0.188 µM | IC50 (PKA-N-HiBiT [3]; [6]): 2.06 µM
2 | O=C(Nc1c[nH]nc1-c1nc2ccc(CN3CCOCC3)cc2[nH]1)NC1CC1 [AT9283] | 67.79 | – | – | – | 0.0437 µM | – | – | yes | 0.0453 µM | IC50 (PKA-N-HiBiT [3]; [6]): 0.861 µM
3 | COc1cc(N2CCOCC2)ccc1Nc1ncc(Cl)c(Nc2ccccc2NS(C)(=O)=O)n1 [CZC 54252 HCl] | 40.07 | 5.09 | 69.42 | 9.66 µM | 1.35 µM | 5.38 | 10.1 µM | no | 1.58 µM | IC50 (PKA-N-HiBiT [3]; [7]): 33.9 µM; IC50 (PKA-N-HiBiT [3]; [6]): 49.9 µM
4 | c1cc(-c2cc(C3CCNCC3)[nH]n2)ccn1 [ETP 45835 2HCl] | 25.66 | 5.02 | -32.09 | 9.57 µM | 8.32 µM | – | – | no | 19.7 µM | IC50 (PKA-N-HiBiT [3]; [7]): 83.2 µM
5 | Cc1cc(O)c2c(c1)C(=O)c1cc(O)cc(O)c1C2=O [Emodin] | -14.68 | – | -3.42 | – | 14.1 µM | – | – | no | 15.2 µM | Efficacy (PKA-N-HiBiT [3]): -14.49; Hill Coef (PKA-N-HiBiT [3]): 3.19; Max Resp (PKA-N-HiBiT [3]): 8.59; CC-v2 (PKA-N-HiBiT [3]): 4; Efficacy [4]: 23.75; Hill Coef [4]: 1.10; Max Resp [4]: 17.37; CC-v2 [4]: 4
6 | O=S(=O)(NCCNC/C=C/c1ccc(Br)cc1)c1cccc2cnccc12 [H-89, reference compound] | – | – | – | – | – | – | – | – | – | PKA SDR (PKA-N-HiBiT [1]; M -4.45): 61.3 and 59.1 and 49.2; PKA SDR (PKA-N-HiBiT [1]; M -4.75): 61.4 and 58.5 and 52.3; PKA SDR (PKA-N-HiBiT [1]; M -5.05): 60.9 and 55.5 and 49.6; PKA SDR (PKA-N-HiBiT [1]; M -5.35): 55.3 and 45.9 and 48.2; PKA SDR (PKA-N-HiBiT [1]; M -5.65): 48.5 and 39.4 and 60.1; PKA SDR (PKA-N-HiBiT [1]; M -5.95): 47.4 and 33.3 and 39.2; PKA SDR (PKA-N-HiBiT [1]; M -6.25): 38.3 and 24.0 and 33.5; PKA SDR (PKA-N-HiBiT [1]; M -6.55): 31.1 and 18.8 and 27.3; SDR assay statistics Ave RLU (PKA-N-HiBiT [1]; [8]): 31921.7 RLU; SDR assay statistics S:B (PKA-N-HiBiT [1]; [8]): 1.5; SDR assay statistics S:N (PKA-N-HiBiT [1]; [8]): 2.6; SDR assay statistics Z’ (PKA-N-HiBiT [1]; [8]): -0.628; Standard assay statistics Ave RLU (PKA-N-HiBiT [3]; [9]): 21788.2 RLU; Standard assay statistics S:B (PKA-N-HiBiT [3]; [9]): 6.8; Standard assay statistics S:N (PKA-N-HiBiT [3]; [9]): 6.3; Standard assay statistics Z’ (PKA-N-HiBiT [3]; [9]): 0.328
7 | O=C(O)[C@]1(Cc2cccc(Nc3nccs3)n2)CC[C@@H](Oc2cccc(Cl)c2F)CC1 [MK-5108 (VX-689)] | 30.82 | 6.90 | 98.02 | 0.126 µM | – | 5.97 | 1.1 µM | no | 28 µM | PKA SDR Assay Mean (pSDR50) (PKA-N-HiBiT [1]; without ATP): 4.56
8 | C[C@@H](NC(=O)c1ncnc(N)c1Cl)c1ncc(C(=O)Nc2cc(C(F)(F)F)c(Cl)cn2)s1 [MLN 2480] | -3.66 | 6.54 | 75.61 | 0.287 µM | – | 5.20 | 6.55 µM | no | – | –
9 | C=CC(=O)N1CCC[C@@H](n2nc(-c3cccc(C(=O)Nc4ccc(C(C)C)c(C)c4)c3)c3c(N)ncnc32)C1 [PF 06465469] | 2.56 | 5.11 | 61.22 | 9.11 µM | – | 5.13 | 8.17 µM | no | – | –
10 | CN(c1ncccc1CNc1nc(Nc2ccc3c(c2)CC(=O)N3)ncc1C(F)(F)F)[S+](C)(=O)[O-] [PF-562271 HCl] | – | – | – | – | 3.98 µM | – | – | – | – | IC50 (PKA-N-HiBiT [3]; [7]): 44.7 µM
11 | Cc1ccc(-n2nc(C(C)(C)C)cc2NC(=O)NCc2cc(F)ccc2Oc2ccc3c(cnn3CCO)c2)cc1 [Pexmetinib] | -18.15 | 7.09 | – | – | – | 5.87 | – | no | – | SDR Ave Max Response [2, 10]: 78.07; EC50 ([2]; SDR assay): 0.0817 µM; IC50 ([4]; Kinase-Glo Plus (KGP) assay): 1.36 µM
12 | Cc1cc(Nc2ncc3c(n2)N(C)C(=O)N(c2cc(NC(=O)c4cccc(C(F)(F)F)c4)ccc2C)C3)n(C)n1 [Pluripotin] | 2.55 | – | 68.08 | – | – | 6.87 | 0.141 µM | no | – | –
13 | N[C@H]1CC[C@H](Nc2nc(Nc3ccc(C(=O)N4CCCCC4)cc3)c3ncn(-c4cccc(F)c4)c3n2)CC1 [Purfalcamine] | 23.75 | 6.61 | 91.87 | 0.248 µM | 117 µM | 5.42 | 3.88 µM | no | – | IC50 (PKA-N-HiBiT [3]; [7]): 22.9 µM; IC50 (PKA-N-HiBiT [3]; [6]): 30 µM
14 | O=c1c(O)c(-c2ccc(O)c(O)c2)oc2cc(O)cc(O)c12 [Quercetin] | -5.00 | – | 48.80 | 9.18 µM | – | – | 5.88 µM | no | – | Efficacy (PKA-N-HiBiT [3]): -15.69; Hill Coef (PKA-N-HiBiT [3]): 1.22; Max Resp (PKA-N-HiBiT [3]): 9.03; CC-v2 (PKA-N-HiBiT [3]): 4
15 | Cdk1/2 inhibitor III | 32.80 | 6.61 | 75.26 | 0.247 µM | – | 5.33 | 4.8 µM | no | – | –
16 | PF-477736 | 33.34 | 6.38 | 81.41 | 0.432 µM | – | 6.01 | 1.04 µM | no | 1.29 µM | IC50 (PKA-N-HiBiT [3]; [6]): 5.32 µM

Further lines, with some results ahead:

Row | SDR Ave Max Response (PKA-N-HiBiT [1]; PKA-N-HiBiT qHTS, SDR assay) | ABL1 SDR pSDR50 [2] | SDR Ave Max Response ([2]; average maximal SDR response) | EC50 ([2]; unit inferred) | EC50 (PKA-N-HiBiT [1]) | ABL1 KGP pIC50 [4] | IC50 ([4]; unit inferred) | Compound | Annotated PKA activity (PKA) | EC50 (PKA-N-HiBiT [1]; [5]) | further results
17 | 5.66 | 6.86 | 71.14 | 0.148 µM | – | 6.18 | 0.668 µM | c1ccc2c(-c3cnn4cc(-c5ccc(N6CCNCC6)cc5)cnc34)ccnc2c1 [LDN-193189] | no | – | –
18 | 8.96 | 7.26 | – | – | – | 5.62 | – | CN1CCN(c2ccc(Nc3ncc4cc(C#N)c(=O)n(C5CCCC5)c4n3)cc2)CC1 [ON-123300] | no | – | SDR Ave Max Response [2, 10]: 44.49; EC50 ([2]; SDR assay): 0.0574 µM; IC50 ([4]; Kinase-Glo Plus (KGP) assay): 2.44 µM
19 | – | – | – | – | 1.26 µM | – | – | Cn1cc(-c2[nH]c3cc(NC(=O)[C@H](N)C4CCCCC4)cc4c3c2C=NNC4=O)cn1 [PF-477736] | – | – | IC50 (PKA-N-HiBiT [3]; [7]): 4.47 µM
20 | 6.70 | – | 9.57 | – | – | – | – | CCN1/C(=C/C(C)=O)Sc2ccc(OC)cc21 [TG003] | no | – | Efficacy (PKA-N-HiBiT [3]): 0.00; Max Resp (PKA-N-HiBiT [3]): 8.95; CC-v2 (PKA-N-HiBiT [3]): 4; Efficacy [4]: 49.18; Hill Coef [4]: 4.96; Max Resp [4]: 37.84; CC-v2 [4]: 3
21 | 20.11 | 6.40 | 71.62 | 0.411 µM | 229 µM | 5.25 | 5.79 µM | CN1CCN(Cc2ccc(-c3cnc4[nH]cc(-c5ccc6[nH]ccc6c5)c4c3)cc2)CC1 [URMC-099] | no | – | –
